Assay in all cases: NCI anticancer screen, dose series, 48 h
The test system of assay [1] is HCT-15 colon.
For assay [2], the system named is IGROV1 ovarian.
Assay [3] deals with K-562 leukemia.
The test system of assay [4] is MCF7 breast.
In assay [5] the test system is MDA-MB-231 breast.
Assay [6] has as its system SF-295 CNS.
Assay [7] relates to SNB-19 CNS.
Assay [8] relates to SNB-75 CNS.
Assay [9] relates to T-47D breast.
In assay [10] the test system is UACC-257 melanoma.

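Exposure lasted 48 hours, with cells grown in 96-well plates and compounds tested at five concentrations. GI50: concentration for 50% inhibition of growth. TGI denotes the concentration required for complete inhibition of growth.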 Where a SMILES comes first, the peptide text is derived from it. The star is where a group is joined. Boc = CC(C)(C)OC(=O)*; OBn = c1ccc(CO*)cc1

Consider `CCOC(=O)C(NC(=O)CC)(Nc1ccc(S(=O)(=O)Nc2onc(C)c2C)cc1)C(F)(F)F` (stereo unspecified), for which the TGI in assay [1], in assay [2], in assay [3], in assay [4], in assay [5] and in [6] was > 100 µM each time. Besides, the TGI in assay [7], in [8], in assay [9] and in assay [10] was > 100 µM each time.

As to `O=C(Sc1c(-c2ccccc2)c(=O)n(-c2ccccc2)c(=S)n1-c1ccccc1)c1cccs1`, the TGI in [1], in [2], in assay [3], in [4], in [6] and in [7] was > 100 µM in each case. Also, the TGI in [8], in assay [9] and in assay [10] was > 100 µM throughout.

In the case of `Cc1ccc(S(=O)(=O)NC(=O)NC(CCCCN=C(N)N)C(=O)O)cc1` (stereo unspecified), the TGI in assay [1], in assay [2], in [3], in assay [4], in assay [5] and in assay [6] was > 100 µM each time. Also, the TGI in [7], in [8], in assay [9] and in [10] was > 100 µM each time.

On to `O=C1CC(C(CC(=O)c2ccccc2)c2ccccc2)C(=O)c2ccccc2N1` (stereo unspecified), for which the TGI in [1] was 94.9 µM; in assay [2] it was > 100 µM; in assay [3], > 100 µM; in assay [4], 80.1 µM; in assay [5] it was > 100 µM; in [6], > 100 µM. The TGI in [7] is > 100 µM; in assay [8], > 100 µM; in [9] it was 64.4 µM; in assay [10], > 100 µM.

In the case of `O=S(=O)(O)c1cccc2cccc(N=Nc3c(O)ccc4ccccc34)c12`, the TGI in assay [1], in [2], in [3], in assay [4], in assay [5] and in assay [6] was > 100 µM in each case. The TGI in assay [7], in assay [8], in [9] and in assay [10] was > 100 µM each time.

As to `COC(=O)[C@@](C)(COC(=O)C(C)(C)C)NC(=O)OC(C)(C)C`, the TGI in assay [1], in assay [2], in assay [3], in assay [4], in assay [5] and in assay [6] was > 100 µM each time. The TGI in assay [7], in assay [8], in assay [9] and in assay [10] was > 100 µM each time.

As for `CC(=O)OC1C2CCC3C(C)(O)C4CC(O)C(C)(C)C4(O)C(O)CC13CC2(C)O` (stereo unspecified), the TGI in assay [1], in assay [2], in [3], in assay [4], in [5] and in assay [6] was > 100 µM in each case. In addition, the TGI in [7], in assay [8], in assay [9] and in assay [10] was > 100 µM throughout.

Consider `CC(C)CC(NC(=O)OC(C)(C)C)C(=O)NC(CC(=O)OCc1ccccc1)C(=O)OCc1ccccc1` (stereo not drawn) (Boc-Leu-Asp(OBn)-OBn; configuration not given here), for which the TGI in assay [3] was > 100 µM; in assay [4], > 100 µM; in [5], > 100 µM; in [6] it was > 100 µM; in assay [7], 99.5 µM; in [8], > 100 µM. The TGI in assay [9] and in assay [10] was > 100 µM throughout.

As to `CCOc1ccc(N=NC2C(=O)N(C(=O)CC(=O)Nc3ccccc3)N=C2C)cc1` (stereo unspecified), the TGI in assay [1], in assay [2], in assay [4], in assay [5], in [6] and in [7] was > 100 µM each time. The TGI in assay [8], in assay [9] and in [10] was > 100 µM in each case.

Turning to `C=C1[C@@](C)([C@@H]2CCCS2)[C@H]2C(C)=C[C@]1(C)n1c(=O)n(-c3ccccc3)c(=O)n12`, the TGI in [1], in assay [2], in [4], in assay [5], in assay [6] and in assay [7] was > 100 µM in each case. Further, the TGI in assay [8], in assay [9] and in assay [10] was > 100 µM throughout.

As for `Cc1ccc(-c2nnc(CCCCCCCCc3nnc(-c4ccc(C)cc4O)n3N)n2N)c(O)c1`, the TGI in assay [1], in assay [2], in assay [4], in assay [5], in [6] and in assay [7] was > 100 µM in each case. Also, the TGI in assay [8], in [9] and in assay [10] was > 100 µM each time.

For `C=C(C)C1CC/C(C)=C/CC[C@]2(C)O[C@@H]2CCC2=CC1OC2=O` (stereo partly specified), the GI50 in assay [1] was 42.3 µM; in assay [2] it was 50.4 µM; in [3] it was 14.6 µM; in assay [4], > 100 µM; in assay [6] it was 24 µM; in assay [7], > 100 µM. Moreover, the GI50 in assay [9] was 18.5 µM. Also, the TGI in assay [1] is > 100 µM; in assay [2] it was > 100 µM; in assay [3] it was 27.7 µM; in assay [4], > 100 µM; in [6] it was > 100 µM; in assay [7], > 100 µM. Moreover, in assay [9], the TGI is > 100 µM.

For the compound `CS[C@]12[C@@H]3C(=O)N(C)C(=O)[C@@H]3[C@](C)(C(=O)N1C)C(=O)N2c1ccccc1`, the TGI in [1], in assay [2], in assay [4], in [5], in assay [6] and in assay [7] was > 100 µM throughout. The TGI in [8], in assay [9] and in assay [10] was > 100 µM each time.

Consider `CC(C)(C)CC(C)(C)NC(=S)NO`, for which the TGI in [1], in [2], in [3], in assay [4], in assay [5] and in assay [6] was > 100 µM in each case. In addition, the TGI in [7], in assay [8], in [9] and in assay [10] was > 100 µM throughout.

With `CN(C)c1ccc(/C=C/C(=O)N[C@@H]2C(=O)N3[C@@H]2SC(C)(C)[C@@H]3C(=O)O)cc1`, the TGI in assay [1], in [3], in [4], in assay [5], in assay [6] and in [7] was > 100 µM in each case. For the same compound, the TGI in assay [8], in assay [9] and in assay [10] was > 100 µM each time.

For the compound `CN(C(=O)c1ccc2c(c1)sc1c(=O)n(C)c3ccccc3c12)c1ccccc1`, the TGI in [1], in [2], in assay [3], in assay [4], in [5] and in [6] was > 100 µM each time. For the same compound, the TGI in assay [7], in assay [8], in assay [9] and in assay [10] was > 100 µM each time.

`CC12CCCCC1=[N+]([O-])C(C)(C)N2O` (stereo unspecified): the TGI in [1], in assay [2], in [4], in assay [5], in [6] and in assay [7] was > 100 µM in each case. The TGI in assay [9] and in [10] was > 100 µM throughout.

Take `COC(=O)c1c(CC(Cc2ccc3c(c2)CCCC3)C(=O)OC)ccc2c1CCCC2` (stereo unspecified): the TGI in assay [1], in [2], in [3], in [4], in assay [5] and in assay [6] was > 100 µM each time. The TGI in assay [7], in assay [9] and in [10] was > 100 µM each time.

As for `Cc1nnc2n(c1=O)CCN2C`, the TGI in [1], in assay [2], in [3], in [4], in assay [5] and in [6] was > 100 µM in each case. In addition, the TGI in assay [7], in assay [8] and in [9] was > 100 µM each time.

Regarding `N=C(N)SCCC(=O)CCSC(=N)N`, the TGI in assay [1], in [3], in [4], in [5], in assay [6] and in assay [7] was > 100 µM throughout. Besides, the TGI in assay [8], in assay [9] and in assay [10] was > 100 µM in each case.

With `CCOC(=O)NNC(=O)NCc1ccccc1CNC(=O)NNC(=O)OCC`, the TGI in assay [1], in assay [2], in assay [3], in assay [4], in [5] and in assay [7] was > 100 µM each time. For the same compound, the TGI in assay [8], in assay [9] and in assay [10] was > 100 µM in each case.

With `Cn1c([C@H](C#N)C(=O)c2cc(O)ccc2[N+](=O)[O-])nc2ccccc21`, the TGI in assay [1], in assay [2], in [4], in assay [5], in assay [6] and in [7] was > 100 µM each time. Also, the TGI in assay [8], in assay [9] and in [10] was > 100 µM in each case.

Take `Nc1ccc(Nc2cc(=O)[nH]c(=O)[nH]2)cc1`: the TGI in [1], in [2], in assay [3], in [4], in [5] and in [6] was > 100 µM throughout. For the same compound, the TGI in assay [7], in assay [9] and in [10] was > 100 µM each time.

For `COC(=O)C1=C(O)C(C(=O)OC)[C@]2(O)[C@@H](C(=O)OC)[C@H]1C[C@@H](c1ccccc1)[C@@H]2C(=O)OC` (stereo partly specified), the TGI in assay [1] is 26.9 µM; in [3] it was 33.4 µM; in [4], > 100 µM; in assay [5], 49.3 µM; in [7] it was 68.7 µM; in assay [8] it was > 100 µM. For the same compound, the TGI in assay [9] was > 100 µM; in assay [10] it was 25.8 µM.

Turning to `Cc1ccc(NC2=NCCO2)c2c1CCC2`, the TGI in assay [1] was > 100 µM; in assay [2], > 100 µM; in [3], > 100 µM; in assay [4], > 100 µM; in assay [5], 69.4 µM; in assay [6], > 100 µM. Also, the TGI was > 100 µM in assay [7], 84.5 µM in [8] and > 100 µM in assay [9].

On to `CC1(C)C(CCO)CC1n1ccc(=O)[nH]c1=O` (stereo unspecified), for which the TGI in assay [1] was > 100 µM; in assay [3], 72.4 µM; in [4], > 100 µM; in [5], > 100 µM; in assay [6], > 100 µM; in [7], > 100 µM. The TGI in assay [8], in [9] and in [10] was > 100 µM throughout.

As for `Cc1c(OCc2ccccc2)c(=O)ccn1CCc1c[nH]c2ccccc12`, the TGI in assay [1] was > 100 µM; in assay [2], > 100 µM; in assay [4], 42.9 µM; in assay [5], > 100 µM; in assay [6], > 100 µM; in [7] it was > 100 µM. Also, the figures for the TGI in assay [9] and in [10] were 58.1 µM and > 100 µM, respectively.

On to `Nc1nccc(NCC2(CO)CCC2)n1`, for which the TGI in [1], in [2], in [3], in assay [4], in [5] and in assay [6] was > 100 µM in each case. The TGI in [8], in assay [9] and in assay [10] was > 100 µM in each case.

These data come from PubChem BioAssay (NCI).
